The values that follow come from ChEMBL document CHEMBL4017445, “Development and crystallographic evaluation of histone H3 peptide with N-terminal serine substitution as a potent inhibitor of lysine-specific demethylase 1” (Bioorg Med Chem, 2017).

Where only a bound is given, the exact number is not on record here.

For the experiment, the target named is Lysine-specific histone demethylase 1A (Homo sapiens, UniProt O60341). The experiment in a line: Inhibition of human LSD1 (172 to 833 residues) assessed as reduction in H2O2 production using H3K4me2 (1 to 20 residues) peptide as substrate preincubated for 10 mins followed by substrate addition measured after 30 mins by peroxidase coupled enzyme assay.

What is called Ki is a dissociation constant, usually derived from enzyme kinetics or from competition with a known ligand. With `CSCC[C@H](NC(=O)[C@@H](NC(=O)[C@H](CCCNC(=N)N)NC(=O)CO)[C@@H](C)O)C(=O)N[C@@H](CCC(N)=O)C(=O)N[C@H](C(=O)N[C@@H](C)C(=O)N[C@@H](CCCNC(=N)N)C(=O)N[C@@H](CCCCN)C(=O)N[C@@H](CO)C(=O)N[C@H](C(=O)NCC(=O)NCC(=O)N[C@@H](CCCCN)C(=O)N[C@@H](C)C(=O)N1CCC[C@H]1C(=O)N[C@@H](CCCNC(=N)N)C(=O)N[C@@H](CCCCN)C(=O)N[C@@H](CCC(N)=O)C(=O)N[C@@H](CC(C)C)C(N)=O)[C@@H](C)O)[C@@H](C)O`, the inhibition constant Ki was determined as 170 µM. Turning to `CSCC[C@H](NC(=O)[C@@H](NC(=O)[C@@H](N)CCCNC(=N)N)[C@@H](C)O)C(=O)N[C@@H](CCC(N)=O)C(=O)N[C@H](C(=O)N[C@@H](C)C(=O)N[C@@H](CCCNC(=N)N)C(=O)N[C@@H](CCCCN)C(=O)N[C@@H](CO)C(=O)N[C@H](C(=O)NCC(=O)NCC(=O)N[C@@H](CCCCN)C(=O)N[C@@H](C)C(=O)N1CCC[C@H]1C(=O)N[C@@H](CCCNC(=N)N)C(=O)N[C@@H](CCCCN)C(=O)N[C@@H](CCC(N)=O)C(=O)N[C@@H](CC(C)C)C(N)=O)[C@@H](C)O)[C@@H](C)O`, the Ki is greater than 500 µM.
